Columns and labels:
[1] = target: T1, heme-bound IDO1 (holo-IDO1) (Homo sapiens, UniProt P14902); experiment: UV/Vis detection of heme-bound IDO1 (heme displacement); type: binding; details: 50 µM, 37 °C, 3 h, Soret band 404 nm
T1 construct: The GST-tag of IDO1 was removed to obtain untagged full-length IDO1l using PreScission protease; GST (N, cleaved yes); made in house; own inference
Description: (§1) Incubation at 37 °C for 3 h. Representative data for n = 3. c) Time‐course of heme displacement from IDO1 detected by the absorbance at the Soret peak (404 nm) as a function of time. […] All curves were fit using a one‐site model with N = 1 and defined IDO1 concentration. Left plots show baseline corrected data, while right plots show integrated binding isotherms versus iDegs/IDO1 ratio. IDO1 protein (125 µM) was titrated into the stirred sample cell containing iDegs (25 µM, except for iDeg‐8 at 50 µM). Representative data for n = 3, except for iDeg‐9 (n = 2). g)–i) In vivo activity of iDeg‐6. NSG immunodeficient mice were injected with SKOV‐3 cells. Mice were treated with 18 intraperitoneal injections of iDeg‐6 (30 mg kg^−1) or vehicle. The pharmacological treatment was twice daily. Tumor volume was determined weekly by digital caliper. g) SKOV‐3 tumor growth curves in iDeg‐6‐treated mice (n = 12, green lines) or vehicle‐treated mice (n = 13, gray lines). Statistical analysis was performed by two‐way ANOVA: ****p < 0.001. h) Body weight changes during treatment window (mean values ± range). i) Survival data are shown by Kaplan‐Meier survival analysis. Mantel–Haenszel statistical analysis: p < 0.0001).
Representative data of n=3 biological replicates. c, IDO1 was incubated with compounds (50 µM) or DMSO (control). UV/VIS spectra were acquired at five time points to monitor heme loss over time. Data are representative of two replicates.
The test compounds or DMSO (vehicle control) were incubated with recombinant full-length human IDO1 (rhIDO1; 10 µM) in 50 mM potassium phosphate buffer (pH 6.5) for 3 h at 37 °C. Following incubation, samples were centrifuged at 5,000 × g for 10 minutes. UV/Vis absorption spectra were then recorded from 250 nm to 650 nm in 1 nm increments using UV-transparent microplates (UV-STAR®, Greiner Bio-One, Austria) on a Spark® multimode microplate reader (Tecan, Austria). Absorbance values were analyzed at 404 nm (A404), and were plotted using GraphPad Prism version 9.0 (GraphPad Software, USA).

[2] = target: T2, IDO1 protein in IFN-γ stimulated HeLa cells (Homo sapiens, UniProt P14902); experiment: IDO1 immunostaining (immunofluorescence); type: cell-based; details: 24 h
T2 construct: endogenous in cells; host or cells: HeLa (DSMZ), IFN-γ stimulated
T2 sequence (P14902 whole entry): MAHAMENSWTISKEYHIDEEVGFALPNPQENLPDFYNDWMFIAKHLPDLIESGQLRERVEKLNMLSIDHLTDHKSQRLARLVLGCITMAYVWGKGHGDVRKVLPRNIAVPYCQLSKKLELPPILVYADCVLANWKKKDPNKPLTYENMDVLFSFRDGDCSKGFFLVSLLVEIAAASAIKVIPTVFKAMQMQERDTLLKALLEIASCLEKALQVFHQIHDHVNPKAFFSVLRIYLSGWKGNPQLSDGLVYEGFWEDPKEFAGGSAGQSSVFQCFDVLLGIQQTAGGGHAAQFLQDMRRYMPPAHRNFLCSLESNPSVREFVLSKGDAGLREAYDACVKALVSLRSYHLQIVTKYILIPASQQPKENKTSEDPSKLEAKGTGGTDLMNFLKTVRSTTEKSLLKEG
Description: Figure 3 Comparison of IDO1 degradation efficiency for selected compounds. a) Detection of IDO1 levels using immunostaining. IFN‐γ stimulated HeLa cells were treated with the compounds for 24 h. IDO1 protein abundance was detected with IDO1 antibody. Data are mean values ± SD, n = 3. b) IDO1 protein levels in BxPC3 cells upon compounds treatment were detected using immunoblotting. BxPC3 cells were treated with IFN‐γ for 24 h prior to washout, followed by addition of compounds. Representative blot and quantified band intensities are shown (mean values ± SD, n = 3). See Figure S11a S12a for the uncropped blots. c) Key functions of hit compounds that influence degradation efficiency. d) Heatmap for IDO degradation efficiency. IDO1 levels were monitored as described in (c). See Table S1 for mean values and Figure S11b for the uncropped blots. e)–g) Dose dependent degradation of IDO1 protein in BxPC3 cells treated with iDeg‐7–9 and detected as described in (c). Representative data of n = 3 except for iDeg‐9 (n = 4). See Figure S12 S13 for the uncropped blots. h) Quantification of IDO1 protein levels from e‐g (mean values ± SD, n = 3 except for iDeg‐9 (n = 4). i) Tabulated inhibition and degradation ability of iDeg‐6–9. ND: not detected. j) Volcano plot of iDeg‐6‐induced changes on the global proteome. SKOV‐3 cells were treated with 10 µM iDeg‐6 or DMSO for 4 h followed by protein extraction, tryptic digest and LC‐MS/MS analysis (n = 4). Plot generated using UMSAP (T 0 = 0.5, S 0 = 0.5).
IFN-γ-stimulated Hela cells (5 ng/mL IFN-γ) were seeded in 96-well plates and incubated for 24 h. Subsequently, IFN-γ was washed out and cells were treated with compounds for additional 24 h. Cells were then washed once with PBS and fixed with 3.7% paraformaldehyde for 10 min at room temperature. Cells were washed three times with ice-cold PBS. […] Images were analyzed by SpectraMax Paradigm microplate reader (Molecular Devices) to extract IDO1 fluorescence intensity as well as the cell count. IDO1 fluorescence intensity was normalized to cell count. […]

[3] = target: IDO1 protein levels in BxPC3 cells (Homo sapiens, UniProt P14902); experiment: IDO1 immunoblotting (degradation); type: cell-based; set-up: endogenous in cells; host or cells: BxPC3 (DSMZ), IFN-γ stimulated; details: for Max. degradation (%): 24 h incubation, mean ± SD
Chain of IDO1 protein levels in BxPC3 cells (P14902 whole entry): as above

[4] = test system: Kyn levels in BxPC3 cells (kynurenine generated by IDO1); experiment: Cellular Kyn assay (automated Kyn screening assay); type: cell-based; details: Homo sapiens, BXPC-3, 48 h, IFN-γ, L-Trp and compounds 48 h, mean ± SD, read-out: IC50 (Kyn assay), reduction of kynurenine levels
[5] = target: T3, recombinant full-length human IDO1 (Homo sapiens, UniProt P14902); experiment: Thermal shift assay (nanoDSF); type: binding; details: 50 µM, 3 h at 37 °C
T3 construct: The GST-tag of IDO1 was removed to obtain untagged full-length IDO1l using PreScission protease; GST (N, cleaved yes); made in house; own inference
T3 sequence (P14902 whole entry): as above
Description: as §1, with “0.0001). […]” for “0.0001).”
The test compounds or DMSO (vehicle control) were incubated with recombinant full-length human IDO1 (rhIDO1; 10 µM) in 50 mM potassium phosphate buffer (pH 6.5) for 3 h at 37 °C. Following incubation, samples were centrifuged at 5,000 × g for 10 minutes, then the protein-compound solutions were loaded into capillaries, and thermal unfolding was assessed using the Prometheus Panta system (NanoTemper® Technologies, Germany). Fluorescence intensities at 330 nm and 350 nm were recorded at temperature increments of 0.115 °C from 20 °C to 90 °C. Melting temperatures (Tm) were automatically calculated using Prometheus NT.48 analysis software. The resulting thermal denaturation curves, with Tm defined as the temperature at the maximum derivative of the unfolding transition, were visualized and analysed using GraphPad Prism version 9.0 (GraphPad Software, USA).

[6] = target: T4, recombinant human IDO1 (Homo sapiens, UniProt P14902); experiment: IDO1 enzymatic assay in vitro; type: biochemical; details: pre-incubation 37 °C 45 min
T4 construct: The GST-tag of IDO1 was removed to obtain untagged full-length IDO1l using PreScission protease; GST (N, cleaved yes); made in house; own inference
T4 sequence (P14902 whole entry): as above

T1 sequence (P14902 whole entry): as above

CC(C)(C)c1ccc(S(=O)(=O)N2C[C@H]3C[C@H]4C[C@H](C4(C)C)[C@@]3(COC(=O)Nc3ccc(I)cc3)C2)cc1 [14 (iDeg-2)]
heme displacement from holo-IDO1 (in words) [1]: displaced heme to a similar extent | IDO1 staining fluorescence intensity (in words) [2]: reduced the fluorescence intensity of the IDO1 staining | Max. degradation (%) ([3]; 10 nM): 20 ± 9 (3) % | Max. degradation (%) ([3]; 100 nM): 37 ± 14 (3) % | Degradation Efficiency (%) ([3]; 100 nM, BxPC3 cells, heatmap Fig. 3d): 37% | IDO1 protein level by immunoblotting (in words) ([3]; BxPC3 cells, IFN-γ 24 h, washout, compounds 24 h): modulate IDO1 abundance | IC50 [4]: 0.12 ± 0.02 µM | shift in IDO1 melting temperature ΔTm / binding in TSA (in words) [5]: identical binding in the TSA assay | inhibition at 14 µM ([6]; at 14 µM, mean ± SD): < 25% | IDO1 activity IC50 [µM] (in vitro assay) ([6]; determined if inhibition at 14 µM higher than 50%): – (Inactive: >75% Kyn level observed up to a concentration of 14 µM and no IC50 value obtained)

— article PMC12811658, “Design, Synthesis, and Structural Evolution of Pseudo‐Natural Product IDO1 Inhibitors and Degraders” (Angewandte Chemie (International Ed. in English), 2025)
